Source: US7459477B2, “Substituted N-phenyl-phenoxy nicotinic acid-(thio)amides and their use as herbicides” (Nihon Nohyaku, Co., Ltd., priority 2001, dated 2008)

Tests used:
Assay type in all cases: in vivo
[1] = test system: powdery mildew fungus (Erysiphe graminis hordei); test: Controlling effect on barley powdery mildew (Test Example 5); conditions: 200 ppm; potted barley at 1 leaf stage sprayed one day after inoculation; one week after the inoculation; 25° C.
Protocol: Controlling Effect on Barley Powdery Mildew Potted barley plants at the 1 leaf stage were inoculated with spores of powdery mildew fungus (Erysiphe graminis hordei) by sprinkling. After one day, they were sprayed with a liquid chemical prepared by diluting a preparation containing each compound listed in Table 1, Table 3 or Table 4 as an active ingredient to adjust the concentration to 200 ppm. Then, they were allowed to stand in a room thermostated at 25° C. One week after the inoculation, the lesion area of each leaf was measured and then compared with that on the untreated plot, whereby the controlling effect was judged according to the following criterion. Criterion for Judgment: • A: control efficacy 100 to 95% • B: control efficacy 94 to 80% • C: control efficacy 79 to 60% • D: control efficacy 59 to 0%

[2] = test system: Two-Spotted Spider Mite (Tetranychus Urticae); test: Acaricidal effect on two-spotted spider mite (Test Example 3); conditions: 500 ppm; kidney bean leaf disc with female adults sprayed; two days after the treatment; 25° C.
Protocol: Acaricidal Effect on Two-Spotted Spider Mite (Tetranychus Urticae)
A leaf disc with a diameter of 2 cm was made of a kidney bean leaf, placed on wet filter paper, inoculated with female adult two-spotted spider mites, and then uniformly sprayed, on a turntable, with 50 ml of a liquid chemical prepared by diluting a preparation containing each compound listed in Tables 1 to 4 as an active ingredient to adjust the concentration to 500 ppm. After the spraying, the leaf disc was allowed to stand in a room thermostated at 25° C. Two days after the treatment with the preparation, the dead insects were counted and the acaricidal effect was judged according to the criterion shown in Test Example 1. The test was carried out with two replications of 10 insects.

[3] = test system: Diamond Back Moth (Plutella xylostella); test: Insecticidal effect on diamond back moth (Test Example 1); conditions: 500 ppm; Chinese cabbage seedling with eggs immersed about 30 seconds; six days after the immersion; 25° C.
Text: Insecticidal Effect on Diamond Back Moth (Plutella xylostella)
Adult diamond back moths were released and allowed to oviposit on a Chinese cabbage seedling. Two days after the release, the seedling having the eggs deposited thereon was immersed for about 30 seconds in a liquid chemical prepared by diluting a preparation containing each compound listed in Tables 1 to 4 as an active ingredient to adjust the concentration to 500 ppm. After air-dryness, it was allowed to stand in a room thermostatted at 25° C. Six days after the immersion, the hatched insects were counted. The mortality was calculated according to the following equation and the insecticidal effect was judged according to the criterion shown below. The test was carried out with triplicate groups of 10 insects.

[4] = test system: Smaller Tea Tortrix (Adxophyes sp.); test: Insecticidal effect on smaller tea tortrix (Test Example 2); conditions: 500 ppm; tea leaves immersed about 30 seconds, inoculated with larvae; eight days after the inoculation; 25° C., humidity 70%
Protocol: Insecticidal Effect on Smaller Tea Tortrix (Adxophyes sp.)
Tea leaves were immersed for about 30 seconds in a liquid chemical prepared by diluting a preparation containing each compound listed in Tables 1 to 4 as an active ingredient to adjust the concentration to 500 ppm. After air-dryness, the tea leaves were placed in a plastic Petri dish with a diameter of 9 cm and inoculated with larvae of smaller tea tortrix, after which the dish was allowed to stand in a room thermostatted at 25° C. and having a humidity of 70%. Eight days after the inoculation, the dead and alive were counted. The mortality was calculated according to the following equation and the insecticidal effect was judged according to the criterion shown in Test Example 1. The test was carried out with triplicate groups of 10 insects.

[5] = test system: Green Peach Aphid (Myzus Persicae); test: Insecticidal effect on green peach aphid (Test Example 4); conditions: 500 ppm; stems and leaves of Chinese cabbage sprayed; six days after the spraying; greenhouse
Text: Insecticidal Effect on Green Peach Aphid (Myzus Persicae)
A Chinese cabbage plant was planted in each of plastic pots with a diameter of 8 cm and a height of 8 cm, and green peach aphids were propagated on the plant. Then, the stems and leaves were sufficiently sprayed with a liquid chemical prepared by diluting a preparation containing each compound listed in Tables 1 to 4 as an active ingredient to adjust the concentration to 500 ppm. After air-drying, the pots were allowed to stand in a greenhouse. Six days after the spraying, green peach aphids parasitic on each Chinese cabbage plant were counted and the control efficacy was calculated, whereby the […] effect was judged according to the criterion shown below. Control efficacy (%)=100−[(T×Ca)/(Ta×C)]×100 • Ta: number of parasites before spraying in treated group, • T: number of parasites after spraying in treated group,
Ca: number of parasites before spraying in untreated group, • […]: number of parasites after spraying in untreated group. Criterion for Judgment: • A: control efficacy 100% • B: control efficacy 99 to 90% • C: control efficacy 89 to 80% • D: control efficacy 79 to 50%

| Structure (SMILES) | controlling effect (control efficacy rating, lesion area) [1] | acaricidal effect (mortality rating) [2] | insecticidal effect (mortality rating) [3] | insecticidal effect (mortality rating) [4] | control efficacy rating [5] |
| --- | --- | --- | --- | --- | --- |
| CC(C)c1cc(C(F)(C(F)(F)F)C(F)(F)F)ccc1NC(=O)c1cn(C)nc1C(F)(F)F [1-5] | B or higher | – | – | – | – |
| Cn1cc(C(=O)Nc2ccc(C(F)(C(F)(F)F)C(F)(F)F)c3c2CCCC3)c(C(F)(F)F)n1 [1-12] | B or higher | – | – | – | – |
| CCCC(C)c1cc(C(OC)(C(F)(F)F)C(F)(F)F)ccc1NC(=O)c1c(C)nn(C)c1Cl (stereo not drawn) [1-23] | B or higher | B or higher | – | – | – |
| CC(C)CC(C)c1cc(C(C(F)(F)F)C(F)(F)F)ccc1NC(=O)c1cn(C)nc1C(F)(F)F (stereo not drawn) [1-30] | B or higher | – | – | – | – |
| Cc1c(C(=O)Nc2ccc(C(C(F)(F)F)C(F)(F)F)cc2C(C)CC(C)C)cnn1C (stereo not drawn) [1-45] | B or higher | – | – | – | – |
| CC(C)CC(C)c1cc(C(C(F)(F)F)C(F)(F)F)ccc1NC(=O)c1cnn(C)c1[S+](C)[O-] (stereo not drawn) [1-47] | B or higher | – | – | – | – |
| CC(C)CC(C)c1cc(C(C(F)(F)F)C(F)(F)F)ccc1NC(=O)c1cnn(CCF)c1Cl (stereo not drawn) [1-52] | B or higher | B or higher | B or higher | B or higher | B or higher |
| CCn1ncc(C(=O)Nc2ccc(C(C(F)(F)F)C(F)(F)F)cc2C(C)CC(C)C)c1Br (stereo not drawn) [1-54] | B or higher | B or higher | – | – | – |
| Cc1c(C(=O)Nc2ccc(C(C(F)(F)F)C(F)(F)F)cc2C(C)CC(C)C)c(Cl)nn1C (stereo not drawn) [1-60] | – | – | – | B or higher | – |
| CCn1nc(C)c(C(=O)Nc2ccc(C(O)(C(F)(F)F)C(F)(F)F)cc2C(C)CC(C)C)c1Br (stereo not drawn) [1-83] | B or higher | – | – | – | – |
| CCCc1nn(C)c(Cl)c1C(=O)Nc1ccc(C(C(F)(F)F)C(F)(F)F)cc1C(C)CC(C)C (stereo not drawn) [1-133] | B or higher | – | B or higher | – | – |
| CC(C)CC(C)c1cc(C(C(F)(F)F)C(F)(F)F)ccc1NC(=O)c1snnc1C(F)(F)F (stereo not drawn) [3-12] | – | – | B or higher | B or higher | – |
| CC(C)CC(C)c1cc(C(C(F)(F)F)C(F)(F)F)ccc1NC(=O)c1sccc1Cl (stereo not drawn) [3-28] | – | – | – | B or higher | – |
| CC(C)CC(C)c1cc(C(C(F)(F)F)C(F)(F)F)ccc1NC(=O)c1sccc1I (stereo not drawn) [3-30] | B or higher | – | – | B or higher | – |
| COC(c1ccc(NC(=O)c2sccc2I)c(C(C)CC(C)C)c1)(C(F)(F)F)C(F)(F)F (stereo not drawn) [3-31] | B or higher | – | – | B or higher | – |
| Cc1cc(C(=O)Nc2ccc(C(C(F)(F)F)C(F)(F)F)cc2C(C)CC(C)C)n(C)n1 (stereo not drawn) [4-3] | B or higher | B or higher | – | – | – |
| CC(C)CC(C)c1cc(C(C(F)(F)F)C(F)(F)F)ccc1NC(=O)c1c(C(F)(F)F)nn(C)c1Cl (stereo not drawn) [Compound No. 1-103, N-{2-(1,3-dimethylbutyl)-4-[2,2,2-trifluoro-1-(trifluoromethyl)ethyl]phenyl}-5-chloro-1-methyl-3-trifluoromethylpyrazole-4-carboxamide] | – | B or higher | B or higher | B or higher | – |
